Paper PMC6372667 (Experimental & Molecular Medicine, 2019)
Where two headings read alike, the source gives them in different places.

Legend:
[1] = molecular target: T1, BACE1 (human recombinant β-secretase) (Homo sapiens, UniProt P56817); assay: In vitro BACE1 FRET enzyme assay; assay type: biochemical
Text: (§1) BACE1 (human recombinant β-secretase) ([…]) and the BACE1 FRET (fluorescence resonance energy transfer) assay kit Red were purchased from ThermoFisher Scientific (P2985; Waltham, MA, USA). […] For the cell culture experiment, Dulbecco’s modified Eagle’s medium (DMEM), Opti-MEM, fetal bovine serum (FBS), and penicillin/streptomycin were obtained from Capricorn Scientific (Ebsdorfergrund, Germany). β-secretase inhibitor III (β-SI) was purchased from Calbiochem (Darmstadt, Germany). The protease inhibitor mixture (a mixture of AEBSF, pepstatin A, E-64, bestain, leupeptin, and aprotinin) was purchased from Sigma-Aldrich (St. Louis, MO, USA). Enzyme-linked immunosorbent assay (ELISA) kits for Aβ40 and Aβ42 were obtained from IBL (Kunma, Japan). All chemicals and solvents used were reagent grade, purchased from commercial sources, and used as received.
The BACE1 FRET assay was carried out according to the manufacturer’s instructions with slight modifications as previously described. The assay was performed in a […] black plate using a multi-pipette.

Electric eel AChE [2] = molecular target: T2, Electric eel AChE (Electrophorus electricus, UniProt O42275); assay: In vitro cholinesterase enzyme assay (Ellman), AChE; assay type: biochemical
T2 construct: purchased Sigma-Aldrich Co
T2 sequence (O42275 24-633): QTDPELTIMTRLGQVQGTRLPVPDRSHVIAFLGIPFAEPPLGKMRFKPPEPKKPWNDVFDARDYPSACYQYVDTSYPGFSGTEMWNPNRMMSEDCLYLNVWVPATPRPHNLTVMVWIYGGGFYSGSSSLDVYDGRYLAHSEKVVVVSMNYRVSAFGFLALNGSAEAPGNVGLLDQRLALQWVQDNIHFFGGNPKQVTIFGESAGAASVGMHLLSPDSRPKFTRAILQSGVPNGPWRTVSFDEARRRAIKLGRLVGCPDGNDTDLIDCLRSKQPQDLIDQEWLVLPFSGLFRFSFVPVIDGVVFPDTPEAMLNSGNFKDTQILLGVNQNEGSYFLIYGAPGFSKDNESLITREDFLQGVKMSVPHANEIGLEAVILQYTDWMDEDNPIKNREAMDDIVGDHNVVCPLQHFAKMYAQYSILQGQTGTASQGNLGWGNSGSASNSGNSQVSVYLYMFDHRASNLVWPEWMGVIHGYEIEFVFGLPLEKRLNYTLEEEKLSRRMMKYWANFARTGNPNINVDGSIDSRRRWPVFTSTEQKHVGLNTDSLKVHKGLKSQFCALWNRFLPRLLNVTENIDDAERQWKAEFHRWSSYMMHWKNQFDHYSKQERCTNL
Text: as §1
(§2) The inhibitory activities of pterosin derivatives against cholinesterases were measured using the method developed by Ellman et al.[32]. The reaction mixture contained 140 μL of sodium phosphate buffer (pH 8.0), 20 μL of test sample solution (final concentration of the compound 100 μM), and 20 μL of AChE or BChE solution, mixed and incubated for 15 min at room temperature. […] The reactions were initiated following the addition of 10 μL of DTNB and 10 μL of acetyl thiocholine iodide for the AChE assay or butyryl thiocholine chloride for the BChE assay in 96-well microplates, which were incubated for 15 min.

horse serum BChE [3] = molecular target: T3, horse serum BChE (Equus caballus, UniProt P81908); assay: In vitro cholinesterase enzyme assay (Ellman), BChE; assay type: biochemical
T3 construct: horse serum BChE (EC 3.1.1.8); purchased Sigma-Aldrich Co; host or cells: horse serum
T3 sequence (P81908 whole entry): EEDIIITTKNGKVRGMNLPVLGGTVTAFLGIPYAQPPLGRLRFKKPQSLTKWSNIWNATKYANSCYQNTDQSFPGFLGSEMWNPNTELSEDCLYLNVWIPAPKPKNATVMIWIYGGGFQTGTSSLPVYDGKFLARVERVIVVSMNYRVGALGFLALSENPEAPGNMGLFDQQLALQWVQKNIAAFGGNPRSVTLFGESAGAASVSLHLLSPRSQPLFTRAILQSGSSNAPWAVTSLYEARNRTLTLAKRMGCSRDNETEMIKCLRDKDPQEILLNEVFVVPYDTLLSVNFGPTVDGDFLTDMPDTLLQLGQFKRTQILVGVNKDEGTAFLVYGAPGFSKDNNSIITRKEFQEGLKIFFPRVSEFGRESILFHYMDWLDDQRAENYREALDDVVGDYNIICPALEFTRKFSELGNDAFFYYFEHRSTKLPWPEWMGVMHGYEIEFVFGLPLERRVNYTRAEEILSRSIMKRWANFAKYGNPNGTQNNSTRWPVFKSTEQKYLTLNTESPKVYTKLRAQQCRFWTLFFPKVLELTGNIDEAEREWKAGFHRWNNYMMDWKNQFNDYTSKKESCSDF
Text: as §1, §2

in vitro = in vitro ADME; conditions: for Papp at 4 h, 25 µg/mL: pig, PAMPA, read-out: PAMPA-BBB permeability Pe
Experimental: PAMPA (parallel artificial membrane permeation assay) was used as a high-throughput assay to predict BBB permeation. Porcine polar brain lipid (PBL) was used as an artificial membrane to predict BBB permeation. Initially, the test compound was dissolved in DMSO at 5 mg/mL. This compound stock solution (10 µL) was diluted 200-fold in a universal buffer at pH 7.4 and mixed with a multi 8-channel pipette to obtain the secondary stock solution (final concentration 25 µg/mL). The secondary stock solution (200 µL) was placed in the donor wells. The filter membrane was coated with PBL in dodecane (4 mL volume of 20 mg/mL PBL in dodecane), and 5 µL of BBB-1 lipid solution was spread on PBL by pipette. The acceptor well was filled with […] of Acceptor Sink Buffer. The acceptor filter plate was cautiously positioned on the donor plate to assemble a “sandwich” (comprising an aqueous acceptor, artificial lipid membrane and aqueous donor with test compound on the top, middle and bottom, respectively). The test compound diffuses from the donor well to the acceptor well through the lipid membrane. After 4 h of incubation at pH 7.4 and 25 °C, the concentration of the compound in the acceptor, donor, reference and blank wells was estimated with a UV plate reader, Epoch Microplate Spectrophotometer (BioTek Instruments, Inc., Winooski, VT, USA). […] Samples were analyzed in quadruplets, and the average of the four runs was reported. To monitor the consistency of the analysis set, quality control standards were run with each sample set.
PAMPA-BBB, an in vitro artificial membrane permeability assay for the BBB, is one of the most reliable physicochemical screening tools in the early stage discovery of CNS-targeted drugs. The PAMPA-BBB system models the transcellular passive diffusion of chemicals across the BBB and measures strictly passive transport mechanisms via an artificial lipid membrane on effective permeability (Pe, cm/s).

[4] = tested on: SH-SY5Y human neuroblastoma; assay: MTT cytotoxicity assay, SH-SY5Y; assay type: cell-based; conditions: 24 h
Experimental: (§3) Cytotoxicity was assessed using the MTT assay. Briefly, the cells were seeded into a 96-well plate at a density of 1×10^5 cells per well in 100 µL of corresponding media and incubated at 37 °C in an incubator under 5% CO2 tension for 24 h. The culture media were then replaced with 100 µL of fresh serum-free media in the presence of varied concentrations of pterosin derivatives, and cells were incubated for an additional 24 h. The control was treated with an equal amount of DMSO present in the assay for a 5 mM concentration. Then, 100 µL of MTT solution (0.5 mg/mL in Phosphate Buffered Saline (PBS)) was added to each culture. To measure the proportion of surviving cells, the media were replaced with 100 µL of DMSO 2 h after the administration of MTT solution. The absorbance was measured at 570 nm using a spectrophotometric plate reader (Molecular Devices, Sunnyvale, CA, USA).

C6 rat glial cells = assay: MTT cytotoxicity assay, C6; assay type: cell-based; conditions: 24 h
Experimental: as §3

[5] = tested on: NIH3T3 mouse embryo fibroblasts; assay: MTT cytotoxicity assay, NIH3T3; assay type: cell-based; conditions: 24 h
Experimental: as §3

B16F10 mouse melanoma = assay: MTT cytotoxicity assay, B16F10; assay type: cell-based; conditions: 24 h
Experimental: as §3

[6] = molecular target: T1, BACE1 (human recombinant β-secretase); assay: Kinetic analysis of BACE1 inhibition (Dixon and Lineweaver−Burk plots); assay type: biochemical
Experimental: (§4) The Ki was determined by interpretation of the Dixon plot, with the value of the x-axis intercept taken as −Ki.
Dixon plots for BACE1 inhibition by pterosin derivatives.
Dixon plots for BACE1 inhibition by pteroside derivatives.

Electric eel AChE [7] = molecular target: T2, Electric eel AChE; assay: Kinetic analysis of AChE inhibition (Dixon and Lineweaver−Burk plots); assay type: biochemical
Experimental: as §4
Dixon plots for AChE inhibition by pterosin derivatives. (2S,3R)-Pterosin C (A), (2R,3R)-pterosin C (B), and (2R)-pterosin B (C) were tested in the presence of substrate concentrations of 0.1 mM (●), 0.3 mM (○), and 0.6 mM (▼). Lineweaver-Burk plots for AChE inhibition were generated with inhibitor concentrations of 0 µM (Δ), 4 µM (▼), 20 µM (○), and 100 µM (●) for (2S,3R)-pterosin C (D) and (2R,3R)-pterosin C (E); and 0 µM (Δ), 2 µM (▼), 10 µM (○), and 50 µM (●) for (2R)-pterosin B (F).
Dixon plots for AChE inhibition by pteroside derivatives. (2R)-pteroside B (A), (2R,3R)-pteroside C (B), and (3S)-pteroside D (C) were tested in the presence of substrate concentrations of 0.1 mM (●), 0.3 mM (○), and 0.6 mM (▼). Lineweaver-Burk plots for AChE inhibition were generated with inhibitor concentrations of 0 µM (Δ), 0.8 µM (▼), 4 µM (○), and 20 µM (●) for (2R)-pteroside B (D), (2R,3R)-pteroside C (E), and (3S)-pteroside D (F).

horse serum BChE [8] = molecular target: T3, horse serum BChE; assay: Kinetic analysis of BChE inhibition (Dixon and Lineweaver−Burk plots); assay type: biochemical
Experimental: as §4
Dixon plots for BChE inhibition by pterosin derivatives. (2S,3R)-Pterosin C (A), (2R,3R)-pterosin C (B), and (2R)-pterosin B (C) were tested in the presence of substrate concentrations of 0.2 mM (●), 0.4 mM (○), and 0.8 mM (▼).
Dixon plots for BChE inhibition by pteroside derivatives. (2R)-pteroside B (A), (2R,3R)-pteroside C (B), and (3S)-pteroside D (C) were tested in the presence of substrate concentrations of 0.2 mM (●), 0.4 mM (○), and 0.8 mM (▼). Lineweaver-Burk plots for BChE inhibition were generated with inhibitor concentrations of 0 µM (Δ), 4 µM (▼), 20 µM (○), and 100 µM (●) for (2R)-pteroside B (D); 0 µM (Δ), 0.8 µM (▼), 4 µM (○), and 20 µM (●) for (2R,3R)-pteroside C (E) and (3S)-pteroside D (F).

[9] = mean ± S.D. of three experiments
[10] = mean ± S.D. of three experiments, read-out: IC50 AChE
[11] = mean ± S.D. of three experiments, read-out: IC50 BChE
[12] = 4 h, pH 7.4, 25 °C, mean ± SD of quadruple experiments
[13] = Dixon and Lineweaver−Burk plots

T1 sequence (P56817 46-501): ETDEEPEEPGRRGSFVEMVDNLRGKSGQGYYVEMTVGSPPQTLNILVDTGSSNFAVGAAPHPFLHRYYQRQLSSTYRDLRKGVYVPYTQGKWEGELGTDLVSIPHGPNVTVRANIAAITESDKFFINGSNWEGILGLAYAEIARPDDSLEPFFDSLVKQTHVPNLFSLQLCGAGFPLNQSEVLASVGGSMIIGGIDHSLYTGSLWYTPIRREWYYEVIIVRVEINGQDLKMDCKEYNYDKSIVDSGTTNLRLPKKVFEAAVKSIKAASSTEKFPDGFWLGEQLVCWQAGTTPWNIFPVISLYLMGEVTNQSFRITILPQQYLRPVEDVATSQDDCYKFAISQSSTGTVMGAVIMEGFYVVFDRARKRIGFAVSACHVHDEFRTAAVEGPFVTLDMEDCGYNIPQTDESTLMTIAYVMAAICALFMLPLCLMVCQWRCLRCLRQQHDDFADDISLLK

Compound	IC50 [1, 9] [µM]	IC50 (Electric eel AChE [2]; [10]) [µM]	IC50 (horse serum BChE [3]; [11]) [µM]	Papp at 4 h, 25 µg/mL (in vitro; [12]) [×10⁻⁶ cm/s]	LD50 Based on MTT Assay, SY-SY5Y [4]	LD50 Based on MTT Assay, C6 (C6 rat glial cells)	LD50 Based on MTT Assay, NIH3T3 [5]	LD50 Based on MTT Assay, B16F10 (B16F10 mouse melanoma)	further results
Cc1cc2c(c(C)c1CCO)C(=O)[C@](C)(CO)C2 [(2S)-Pterosin A, (2S)-pterosin A]	> 125	56.7 ± 2.6	67.3 ± 3.3	6.26 ± 0.24	1,210 ± 110 µM	>5,000 µM	>5,000 µM	522 ± 25 µM	IC50 BACE1 [1, 9]: inactive at the concentrations tested; log Pe (in vitro; PAMPA-BBB): -5.20; BBB permeation class (in vitro; PAMPA-BBB, classified by Pe, given in words): high BBB permeation
Cc1cc2c(c(C)c1CCO)C(=O)C(C)(COC1OC(CO)C(O)C(O)C1O)C2 [(2S)-Pteroside A2, (2S)-pteroside A2]	94.4 ± 4.5	39.3 ± 1.9	119 ± 2.5	0.54 ± 0.51	1,010 ± 60 µM	>5,000 µM	>5,000 µM	>5,000 µM	
Cc1cc2c(c(C)c1CCO[C@@H]1O[C@H](CO)[C@@H](O)[C@H](O)[C@H]1O)C(=O)[C@@H](C)[C@H]2O [(2S,3R)-Pteroside C, (2S,3R)-pteroside C]	28.9 ± 2.2	9.17 ± 0.82	13 ± 0.14	0.29 ± 0.34	711 ± 35 µM	>5,000 µM	>5,000 µM	>5,000 µM	
Cc1cc2c(c(C)c1CCO)C(=O)[C@H](C)[C@H]2O [(2R,3R)-Pterosin C, (2R,3R)-pterosin C]					719 ± 25 µM	694 ± 9.7 µM	>5,000 µM	>5,000 µM	IC50 [1]: 26.2 ± 6.3 µM; IC50 (Electric eel AChE [2]): 23.2 ± 4.6 µM; IC50 (horse serum BChE [3]): 20.3 ± 0.88 µM; Ki [6]: 27.6 µM; Inhibition type BACE1 [6, 13]: Mixed-type; Ki (Electric eel AChE [7]): 29.6 µM; Inhibition type AChE (Electric eel AChE [7]; [13]): Noncompetitive; Ki (horse serum BChE [8]): 4.77 µM; Inhibition type BChE (horse serum BChE [8]; [13]): Mixed-type; log Pe (in vitro): -5.70; Papp at 4 h, 25 µg/mL (in vitro; pH 7.4): 1.98 ± 0.17 ×10⁻⁶ cm/s
